Laboratory results as given in patent publication US20240197712A1, “TGF-BETA INHIBITION FOR IMMUNODEFICIENCY VIRUS REACTIVATION FROM LATENCY, ENHANCEMENT OF IMMUNODEFICIENCY VIRUS-SPECIFIC RESPONSES AND IMMUNODEFICIENCY VIRUS CURE” (Northwestern University, priority 2022, published 2024).

Key:
Type in all cases: in vivo, rhesus macaques
[1] = system: TGF-β; experiment: Total TGF-β in plasma by ELISA; settings: baseline vs W1/2
Text: FIGS. 16A-16B. […] (FIG. 16A) The concentration of total TGF-β in the plasma before and after galunisertib as detected by ELISA is shown. Wilcoxon matched-pairs test was used to compare BL with W1/2 data, Significant p-value of α<0.05 (*) is shown. (FIG. 16B) No correlation is present between the concentration of TGF-β before treatment in blood and the change in Gut-SUVTot in each animal after galunisertib treatment (p=0.199; Person R=0.304).

[2] = system: SIVmac239M2; experiment: Plasma viral load, four 2-week galunisertib cycles
Procedure: Rhesus macaques (n=8 main study+4 separate non-concomitant study) were infected with 300 TCID50 of the barcoded SIVmac239M2 stock intravenously and ART (Tenofovir [PMPA], Emtricitabine [FTC] and Dolutegravir [DTG]) was initiated on week 6 pi. Galunisertib treatment was initiated on week 35 p.i. Powder (MedChemExpress—MCE, NJ, USA) was dissolved in water and given orally in a treat twice daily at 20 mg/kg. 4 cycles of 2 weeks daily treatment with 2 weeks wash out period were performed. Macaques 08M156 and A6X003 were given the rhesus recombinant antibody (rhesus/human chimeric) anti-PD1 antibody [NIVOR4LALA; comprising silenced rhesus IgG4k […] constant regions and variable regions from anti-human PD-1, nivolumab; non-human primates reagents resource, NHPRR. Blood viral load was monitored biweekly before and during ART and every 3-4 days during Galunisertib treatment. Colorectal biopsies and LN FNA were collected before and after galunisertib treatment. ART was terminated 3 weeks after the last galunisertib dose and euthanasia and necropsy to harvest tissues were performed at week 58 post infection, tissues samples were flash frozen, fixed in OCT or Z-fix.
Blood was collected in EDTA tubes and plasma was separated by density gradient centrifugation and used for the determination of plasma VL by SIVgag qRT-PCR at NIRC or at Leidos (Quantitative Molecular Diagnostics Core, AIDS and Cancer Virus Program Frederick National Laboratory). Tissue VL from snap frozen PBMC pellets, colorectal biopsies and LN FNA were performed as described in (77). SIV-TILDA was performed on freshly stored PBMC before cycle 1 and at the end of cycle 4 of galunisertib by Accelevir, Baltimore, MD.

[3] = system: SIV-env; experiment: ImmunoPET/CT, four-cycle study
Procedure: ImmunoPET/CT for mapping SIV signals in total body scans were conducted in part as reported previously (110). The probe consisted of primatized p7D3 anti-env F(ab)′2 coupled with the chelator DOTA and labeled with Cu64 just prior to administration to the animals. For probe administration, the animals were sedated, and a venous catheter was placed into an arm of leg vein to minimize bleeding of the probe into the tissue surrounding the site of injection. The probe for each animal consisted of ˜1 mg of the p7D3 F(ab)′2 labeled with 2-3 mCi of ^64Cu. After injection, the animals were allowed to recuperate in their cage until the next day. At 24 hours, the animals were again anesthetized with Telazol and the macaque's body was immobilized in dorsal recumbency on the scanner table. Scans were conducted 535 in a Phillips Gemini TF64 scanner. The final CT image was compiled from 200 to 300 slices, depending on macaque size. PET Image analysis was performed using the MIM software. PET/CT fusions were generated scaled according to calculated Standardized Uptake Values (SUV). The SUV scale for the PET scans was selected based on the overall signal intensity of the PET scans (whole body), and the CT scale was selected for optimal visibility of the tissues. All images and maximum image projections were set to the same scale for visual comparisons.
Multimodal registration and ROI segmentation were executed using the MIM software (MIM Software, Inc., Cleveland, OH) for PET and CT images, encompassing 250 to 300 fractions, depending on the macaque's body size. PET and CT images were fused to quantify changes in SUV (Standardized Uptake Value) within Regions of Interest (ROI), with PET SUV scale determined by overall signal intensity and CT scale optimized for tissue visibility. Segmentations were performed for various anatomical regions: Whole Body, Liver, Lymph nodes, Gut, Kidneys, Spleen, and Vertebrae. The external body was outlined for the Whole-Body contour, while the GRADIENT method PET-Edge and interactive contouring tools were employed for other ROIs. Liver segmentation initially utilized PET-Edge in PET coronal-sectional view, followed by interactive delineation for the structure and the corresponding signals. Kidneys, Spleen, and Vertebrae volume were determined based on CT scans in the cross-sectional view, incorporating PET signals into contours. […] To quantify the signal in the axillary lymph nodes, the data-point in each macaque featuring the strongest PET signal was chosen as a basis for an inhouse Multi-Time-Point Contour Transfer Workflow, followed by interactive contouring of the signal to all time points. The workflow integrated CT scans to establish and map specific ROIs in subsequent scans, thereby accounting for any changes in the animal's orientation at other time points through manual adjustments. To quantify the signal in the gut tissue, the body segment below the stomach to above the cervix was initially isolated. The Gut's SUV was then calculated by extracting the spleen, both kidneys, liver, and bones within the designated body region using Boolean operations.

[4] = Clinical pathology (chemistry, hematology) and adverse events
Procedure: 1 mL of blood was collected in EDTA tubes and tested for a standard hematology panel (complete blood count—CBC) using a BECKMAN COULTER DxH600 hematology analyzer. An additional 1 mL of blood was collected into a SST tube, centrifuged to isolate serum, and analyzed for a comprehensive serum chemistry panel using a Siemens's Dimension Clinical Chemistry Analyzer.

SMILES: Cc1cccc(-c2nn3c(c2-c2ccnc4ccc(C(N)=O)cc24)CCC3)n1 [galunisertib, Galunisertib]
- levels of TGF-β in blood after treatment [1]: increases in the levels of TGF-β
- macaques with increased pVL after start of treatment ([2]; 20 mg/Kg twice daily orally, 4 cycles): 7 out of 8
- increases in pVL in fully suppressed macaques ([2]; 08M171, A8R095 and A8L057): > 102 copies/ml
- viral rebound after ART interruption ([2]; ART discontinued 3 weeks after last dose, 6 weeks follow-up): One macaque did not rebound
- macaques with viral blips above 100 copies/ml in blood ([2]; Example 5, 7 macaques, 20 mg/kg twice per day, four 2-weeks cycles): 5 out of the 7
- pVL peaks during treatment ([2]; macaques with several peaks): up to 103 copies/ml
- pVL blips in A8T010 and A8R095 after treatment initiation ([2]; undetectable for over 5 weeks before): up to 102 copies/ml
- SIV reactivation in tissues by PET/CT ([3]; Example 5, all macaques, particularly after cycle 2): Extensive SIV reactivation
- SUV increase in gastrointestinal area and axillary lymph nodes ([3]; compared to before cycle 1 (BC1)): significant in cycle 3
- SUV at the level of the spleen or kidney ([3]; vs BC1): No SUV increase
- SUV in the liver and whole-body ([3]; vs BC1): significant increase in SUV
- Spine SUV ([3]; vs BC1): increased significantly with the first cycle
- clinical variables (chemistry and hematology) ([4]; before, during and after therapy): No significant changes
- adverse events ([4]; macaque studies): no adverse events
